The values that follow come from US20170319480A1, “PHARMACEUTICAL FORMULATION” (Boehringer Ingelheim International GmbH, priority 2014, published 2017).

The structures appear in SMILES notation.

The data set in a line: Bioavailability of afatinib in fed state. The class given is in vivo. The settings on record: adults. The source says:
As decreased bioavailability of afatinib has been observed in adults ad fed state, the oral solution is not intended to be administered with food or drinks.

Turning to `CN(C)C/C=C/C(=O)Nc1cc2c(Nc3ccc(F)c(Cl)c3)ncnc2cc1O[C@H]1CCOC1` [afatinib, 4-[(3-chloro-4-fluorophenyl)amino]-6-{[4-(N,N-dimethylamino)-1-oxo-2-buten-1-yl]amino}-7-((S)-tetrahydrofuran-3-yloxy)-quinazoline], the “bioavailability in fed state” value is “decreased”.
